For this experiment, the system named is MV-4-11 cells. Nature of the experiment: Gene expression microarray analysis (Affymetrix PrimeView) and GSEA. It counts as cell-based, human. Particulars: ProbeSet 11754607_s_at; LIST B.

For `Nc1ncn([C@@H]2O[C@H](CO)[C@@H](O)[C@H]2O)c(=O)n1` [azacitidine], the “RFU, HSP90B1 /// MIR3652” value is 2647.82 RFU.

The values above are taken from PMC5218480 (PLoS ONE, 2017).
